Structures are written as SMILES. Bridge positions count the residues as written; N and C are the ends. Square brackets hold non-standard residues; d marks the D form. Peptide text beside a SMILES is read from it. * marks the point of attachment. ξ: configuration not given here. Phe(4-CH2CH2COOH) = N[C@@H](Cc1ccc(CCC(=O)O)cc1)C(=O)O; Phe(3-CF3) = N[C@@H](Cc1cccc(C(F)(F)F)c1)C(=O)O; Ala(morpholin-4-yl) = N[C@@H](CN1CCOCC1)C(=O)O; Phe(4-COOH) = N[C@@H](Cc1ccc(C(=O)O)cc1)C(=O)O; Bip = N[C@@H](Cc1ccc(-c2ccccc2)cc1)C(=O)O; NH(CH2)14COOH = O=C(O)CCCCCCCCCCCCCCN*; Phe(3-Me) = Cc1cccc(C[C@H](N)C(=O)O)c1; Val(3-OH) = CC(C)(O)[C@H](N)C(=O)O; hhGln = NC(=O)CCCC[C@H](N)C(=O)O; 4Pal = N[C@@H](Cc1ccncc1)C(=O)O; Cha = N[C@@H](CC1CCCCC1)C(=O)O; Thr(3ξ) = CC(O)[C@H](N)C(=O)O; Carboxymethyl = O=C(O)C*; Orn = NCCC[C@H](N)C(=O)O; Pra = C#CC[C@H](N)C(=O)O; Aun = NCCCCCCCCCCC(=O)O; Dab = NCC[C@H](N)C(=O)O; Nva = CCC[C@H](N)C(=O)O; ξE = NC(CCC(=O)O)C(=O)O; Dap = NC[C@H](N)C(=O)O; AEEA = NCCOCCOCC(=O)O; ξC = NC(CS)C(=O)O

In the assay the target is T1, PD-1/PD-L1 interaction (PE-labeled human PD-L1-Ig binding to Jurkat cell line over-expressing human PD-1) (Homo sapiens, UniProt Q15116).
T1 construct: expressed in transfected cells; host or cells: Jurkat
T1 sequence (Q15116 25-288): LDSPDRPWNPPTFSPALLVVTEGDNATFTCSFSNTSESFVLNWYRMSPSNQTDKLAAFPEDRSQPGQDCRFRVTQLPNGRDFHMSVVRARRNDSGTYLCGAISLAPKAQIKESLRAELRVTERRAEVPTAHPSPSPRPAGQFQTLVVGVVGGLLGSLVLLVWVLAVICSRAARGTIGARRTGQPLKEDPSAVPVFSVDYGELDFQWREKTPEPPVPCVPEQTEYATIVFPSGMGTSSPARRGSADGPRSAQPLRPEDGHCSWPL
Put plainly: Jurkat-PD-1 Cell Binding High-Content Screening Assay (CBA). The assay is classed as cell-based. Particulars: Jurkat cell line over-expressing human PD-1; PE-labeled PD-L1-Ig 20 nM final; read-out: Jurkat hPD1-PDL1 IC50. The essentials:
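Human PD-L1-Ig carrying a covalent PE label on its Ig tag serves as the probe, applied at 20 nM final to compound-treated (2 h, 37° C) Jurkat-hPD-1 cells in medium with 10% fetal calf serum. After one hour, fixation and nuclear staining precede high-content image analysis.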
In general, IC50 refers to the midpoint of a concentration-inhibition curve. `CSCC[C@@H]1NC(=O)[C@H](Cc2ccc(-c3ccccc3)cc2)NC(=O)[C@H](C(C)C)NC(=O)[C@H](Cc2cccc(C)c2)NC(=O)[C@H](CC(=O)O)NC(=O)[C@H](Cc2ccc(OCC(=O)O)cc2)NC(=O)[C@H](CCCNC(=N)N)NC(=O)CSC[C@@H](C(=O)N[C@@H](CCN)C(=O)NCCCCCCCCCCC(=O)O)NC(=O)[C@H](CCC(N)=O)NC(=O)[C@H](C(C)C)NC(=O)[C@H](CC2CCCCC2)NC(=O)[C@H](CCN)NC(=O)[C@@H](CC(C)C)NC(=O)[C@H](CCCN)NC1=O` [Compound 3385] ({CH2CO}-RY(Carboxymethyl)D[Phe(3-Me)]V[Bip]M[Orn][dL][Dab][Cha]VQC[Dab][Aun]-OH; thioether N-14): the IC50 was determined as 16.5 nM.

Regarding `Cc1cccc(C[C@@H]2NC(=O)[C@H](CC(=O)O)NC(=O)[C@H](Cc3ccc(OCC(=O)O)cc3)NC(=O)[C@H](CN)NC(=O)CSC[C@@H](C(=O)N[C@@H](CCN)C(=O)NCCOCCOCC(=O)NCCCCCCCCCCC(=O)O)NC(=O)[C@H](CCCNC(=N)N)NC(=O)[C@H](C(C)C)NC(=O)[C@H](CC3CCCCC3)NC(=O)[C@H](CCN)NC(=O)[C@@H](CC(C)C)NC(=O)[C@H](CCCN)NC(=O)[C@H](C(C)C)NC(=O)[C@H](Cc3ccc(-c4ccccc4)cc3)NC(=O)[C@H](C(C)C)NC2=O)c1` [Compound 2552] ({CH2CO}-[Dap]Y(Carboxymethyl)D[Phe(3-Me)]V[Bip]V[Orn][dL][Dab][Cha]VRC[Dab][AEEA][Aun]-OH; thioether N-14), the IC50 was determined as 9.9 nM.

Regarding `CC(C)C[C@H]1NC(=O)[C@H](CCCN)NC(=O)[C@H](C(C)C)NC(=O)[C@H](Cc2ccc(-c3ccccc3)cc2)NC(=O)[C@H](C(C)C)NC(=O)[C@H](Cc2c[nH]c3ccccc23)NC(=O)[C@H](CC(=O)O)NC(=O)[C@H](Cc2ccc(OCC(=O)O)cc2)NC(=O)[C@H](CN)NC(=O)CSC[C@@H](C(=O)N[C@@H](C)C(=O)N[C@@H](CC(=O)O)C(=O)NCC(=O)NCCCCCCCCCCC(=O)O)NC(=O)[C@H]([C@@H](C)O)NC(=O)[C@H](C(C)C)NC(=O)[C@H](CC2CCCCC2)NC(=O)[C@H](Cc2cnc[nH]2)NC1=O` [Compound 1089] ({CH2CO}-[Dap]Y(Carboxymethyl)DWV[Bip]V[Orn][dL]H[Cha]VTCADG[Aun]-OH; thioether N-14), the IC50 is 33.1 nM.

For `C#CC[C@H](NC(=O)COCCOCCNC(=O)[C@H](CCCN)NC(=O)[C@@H]1CSCC(=O)N[C@@H](Cc2ccncc2)C(=O)N[C@@H](Cc2ccc(OCC(=O)O)cc2)C(=O)N[C@@H](CC(=O)O)C(=O)N[C@@H](Cc2c[nH]c3ccccc23)C(=O)N[C@@H](C(C)C)C(=O)N[C@@H](Cc2ccc(-c3ccccc3)cc2)C(=O)N[C@@H]([C@@H](C)CC)C(=O)N[C@@H](CCCN)C(=O)N[C@H](CC(C)C)C(=O)N[C@@H](CCN)C(=O)N[C@@H](CC(C)C)C(=O)N[C@@H](C(C)C)C(=O)N[C@@H]([C@@H](C)O)C(=O)N1)C(=O)N[C@@H](CCCNC(=N)N)C(=O)NCCCCCCCCCCC(=O)O` [Compound 1203] ({CH2CO}-[4Pal]Y(Carboxymethyl)DWV[Bip]I[Orn][dL][Dab]LVTC[Orn][AEEA][Pra]R[Aun]-OH; thioether N-14), the IC50 was found to be 37.4 nM.

Take `CC(C)C[C@H]1NC(=O)[C@H](CCCN)NC(=O)[C@H](Cc2ccc(C(=O)O)cc2)NC(=O)[C@H](Cc2ccc(-c3ccccc3)cc2)NC(=O)[C@H](Cc2ccc(C(=O)O)cc2)NC(=O)[C@H](Cc2cccc(C(F)(F)F)c2)NC(=O)[C@H](CC(=O)O)NC(=O)[C@H](Cc2ccc(OCC(=O)O)cc2)NC(=O)[C@H](CN2CCOCC2)NC(=O)CSC[C@@H](C(=O)N[C@@H](CCN)C(=O)NCCOCCOCC(=O)NCCOCCOCC(=O)NCCCCCCCCCCCCCCC(=O)O)NC(=O)[C@H](CO)NC(=O)[C@H](C(C)(C)O)NC(=O)[C@H](CC2CCCCC2)NC(=O)[C@H](CCN)NC1=O` [Compound 2915] ({CH2CO}-[Ala(morpholin-4-yl)]Y(Carboxymethyl)D[Phe(3-CF3)][Phe(4-COOH)][Bip][Phe(4-COOH)][Orn][dL][Dab][Cha][Val(3-OH)]SC[Dab][AEEA][AEEA]-{NH(CH2)14COOH}; thioether N-14): the IC50 amounted to 176 nM.

With `C#CC[C@H](NC(=O)[C@H](CCN)NC(=O)[C@@H]1CSCC(=O)N[C@@H](Cc2ccncc2)C(=O)N[C@@H](Cc2ccc(OCC(=O)O)cc2)C(=O)N[C@@H](CC(=O)O)C(=O)N[C@@H](Cc2cccc(C)c2)C(=O)N[C@@H](Cc2ccc(OC)cc2)C(=O)N[C@@H](Cc2ccc(-c3ccccc3)cc2)C(=O)N[C@@H](Cc2ccc(OCC(=O)O)cc2)C(=O)N[C@@H](CCCN)C(=O)N[C@H](CC(C)C)C(=O)N[C@@H](CCN)C(=O)N[C@@H](CC2CCCCC2)C(=O)N[C@@H](C(C)(C)O)C(=O)N[C@@H](CO)C(=O)N1)C(=O)NCCCCCCCCCCC(=O)O` [Compound 1278] ({CH2CO}-[4Pal]Y(Carboxymethyl)D[Phe(3-Me)]Y(Me)[Bip]Y(Carboxymethyl)[Orn][dL][Dab][Cha][Val(3-OH)]SC[Dab][Pra][Aun]-OH; thioether N-14), the IC50 is 140 nM.

As to `Cc1cccc(C[C@@H]2NC(=O)[C@H](CC(=O)O)NC(=O)[C@H](Cc3ccc(OCC(=O)O)cc3)NC(=O)[C@H](CCCNC(=N)N)NC(=O)CSC[C@@H](C(=O)N[C@@H](CCN)C(=O)NCCCCCCCCCCC(=O)O)NC(=O)[C@H](CCC(N)=O)NC(=O)[C@H](C(C)C)NC(=O)[C@H](CC3CCCCC3)NC(=O)[C@H](CCN)NC(=O)[C@@H](CC(C)C)NC(=O)[C@H](CCCN)NC(=O)[C@H](Cc3ccc(O)cc3)NC(=O)[C@H](Cc3ccc(-c4ccccc4)cc3)NC(=O)[C@H](Cc3ccc(CCC(=O)O)cc3)NC2=O)c1` [Compound 2131] ({CH2CO}-RY(Carboxymethyl)D[Phe(3-Me)][Phe(4-CH2CH2COOH)][Bip]Y[Orn][dL][Dab][Cha]VQC[Dab][Aun]-OH; thioether N-14), the IC50 was found to be 5.8 nM.

For the molecule `Cc1cccc(C[C@@H]2NC(=O)[C@H](CC(=O)O)NC(=O)[C@H](Cc3ccc(OCC(=O)O)cc3)NC(=O)[C@H](CN)NC(=O)CSC[C@@H](C(=O)N[C@@H](C)C(=O)NC(CCC(=O)O)C(=O)NCCOCCOCC(=O)NCCCCCCCCCCC(=O)O)NC(=O)[C@H](CCCN)NC(=O)[C@H](C(C)C)NC(=O)[C@H](CC3CCCCC3)NC(=O)[C@H](CCN)NC(=O)[C@@H](CC(C)C)NC(=O)[C@H](CCCN)NC(=O)[C@H](CCCCC(N)=O)NC(=O)[C@H](Cc3ccc(-c4ccccc4)cc3)NC(=O)[C@H](C(C)C)NC2=O)c1` (stereo partly drawn) [Compound 2615] ({CH2CO}-[Dap]Y(Carboxymethyl)D[Phe(3-Me)]V[Bip][hhGln][Orn][dL][Dab][Cha]V[Orn]CA[ξE][AEEA][Aun]-OH; thioether N-14), the IC50 worked out at 8.5 nM.

For the molecule `Cc1cccc(C[C@@H]2NC(=O)[C@H](CC(=O)O)NC(=O)[C@H](Cc3ccc(OCC(=O)O)cc3)NC(=O)[C@H](CN)NC(=O)CSC[C@@H](C(=O)N[C@@H](CCN)C(=O)NCCOCCOCC(=O)NCCCCCCCCCCC(=O)O)NC(=O)[C@H](C(C)O)NC(=O)[C@H](C(C)C)NC(=O)[C@H](CC3CCCCC3)NC(=O)[C@H](CCN)NC(=O)[C@@H](CC(C)C)NC(=O)[C@H](CCCN)NC(=O)[C@H](Cc3ccc(O)cc3)NC(=O)[C@H](Cc3ccc(-c4ccccc4)cc3)NC(=O)[C@H](C(C)C)NC2=O)c1` (stereo partly drawn) [Compound 2587] ({CH2CO}-[Dap]Y(Carboxymethyl)D[Phe(3-Me)]V[Bip]Y[Orn][dL][Dab][Cha]V[Thr(3ξ)]C[Dab][AEEA][Aun]-OH; thioether N-14), the IC50 was determined as 8.8 nM.

On to `Cc1cccc(C[C@@H]2NC(=O)[C@H](CC(=O)O)NC(=O)[C@H](Cc3ccc(OCC(=O)O)cc3)NC(=O)[C@H](CN)NC(=O)CSC[C@@H](C(=O)N[C@@H](CCN)C(=O)NCCOCCOCC(=O)NCCCCCCCCCCC(=O)O)NC(=O)[C@H](CCC(=O)O)NC(=O)[C@H](C(C)C)NC(=O)[C@H](CC(C)C)NC(=O)[C@H](CCN)NC(=O)[C@@H](CC(C)C)NC(=O)[C@H](CCCN)NC(=O)[C@H](Cc3ccc(OCC(=O)O)cc3)NC(=O)[C@H](Cc3ccc(-c4ccccc4)cc3)NC(=O)[C@H](Cc3ccc(OCC(=O)O)cc3)NC2=O)c1` [Compound 1257] ({CH2CO}-[Dap]Y(Carboxymethyl)D[Phe(3-Me)]Y(Carboxymethyl)[Bip]Y(Carboxymethyl)[Orn][dL][Dab]LVEC[Dab][AEEA][Aun]-OH; thioether N-14), for which the IC50 was found to be 20 nM.

With `CCC[C@@H]1NC(=O)CSC[C@@H](C(=O)N[C@@H](CCN)C(=O)NCCCCCCCCCCCCCCC(=O)O)NC(=O)[C@H](CO)NC(=O)[C@H](C(C)(C)O)NC(=O)[C@H](CC2CCCCC2)NC(=O)[C@H](CCN)NC(=O)[C@@H](CC(C)C)NC(=O)[C@H](CCCN)NC(=O)[C@H](Cc2ccc(OCC(=O)O)cc2)NC(=O)[C@H](Cc2ccc(-c3ccccc3)cc2)NC(=O)[C@H](Cc2ccc(OCC(=O)O)cc2)NC(=O)[C@H](Cc2cccc(C(F)(F)F)c2)NC(=O)[C@H](CC(=O)O)NC(=O)[C@H](Cc2ccc(C(=O)O)cc2)NC1=O` [Compound 2904] ({CH2CO}-[Nva][Phe(4-COOH)]D[Phe(3-CF3)]Y(Carboxymethyl)[Bip]Y(Carboxymethyl)[Orn][dL][Dab][Cha][Val(3-OH)]SC[Dab]-{NH(CH2)14COOH}; thioether N-14), the IC50 is 518 nM.

For `CC(C)C[C@H]1NC(=O)[C@H](CCCN)NC(=O)[C@H](C(C)C)NC(=O)[C@H](Cc2ccc(-c3ccccc3)cc2)NC(=O)[C@H](C(C)C)NC(=O)[C@H](Cc2c[nH]c3ccccc23)NC(=O)[C@H](CC(=O)O)NC(=O)[C@H](Cc2ccc(OCC(=O)O)cc2)NC(=O)[C@H](CN)NC(=O)CSCC(C(=O)N[C@H](CC(=O)O)C(=O)NCCCCCCCCCCC(=O)O)NC(=O)[C@H]([C@@H](C)O)NC(=O)[C@H](C(C)C)NC(=O)[C@H](CC2CCCCC2)NC(=O)[C@H](Cc2cnc[nH]2)NC1=O` (stereo partly drawn) [Compound 1121] ({CH2CO}-[Dap]Y(Carboxymethyl)DWV[Bip]V[Orn][dL]H[Cha]VT[ξC][dD][Aun]-OH; thioether N-14), the IC50 turned out to be 27.4 nM.

Source of the values: patent US20260022142A1, “MACROCYCLIC IMMUNOMODULATORS” (Bristol-Myers Squibb Company, priority 2022, published 2026).
